Assay results: US11059815B2, “Synthesis of small molecule histone deacetylase 6 degraders, compounds formed thereby, and pharmaceutical compositions containing them” (Wisconsin Alumni Research Foundation, priority 2018, dated 2021)
Like-named read-outs stand apart in the source and are kept apart here.

Test system: MM1S cells
Assay: Cell viability assay in MM1S cells
Type: cell-based, human
Conditions: for Maximal Inhibition (%) of growth / IC50: 0.3 nM to 3 μM, nonlinear fit, ± SD; for IC50 / inhibition at 1 µM: Homo sapiens, MM1.S; for IC50: read-out: IC50 of antiproliferation
Procedure: FIG. 14A is a histogram depicting cell viability of MM1S cells treated with compounds at 1 μM for 72 h. FIG. 14B is a graph showing cell viability of MM1S cells treated with compounds at concentrations from 0.3 nM to 3 μM for 72 h. All data were normalized to vehicle (DMSO)-treated group and dot plot represented as mean of relative viability (n=3) with ±SD as error bar. For the curve in FIG. 14B, nonlinear fitting of inhibitor concentration vs. response (three parameters) was generated by GraphPad Prism with R^2 from 0.92 to 0.97. Statistical significance was analyzed by one-way ANOVA for FIG. 14A and two-way ANOVA for FIG. 14B. Not significant (ns) P>0.05, *P≤0.05, **P≤0.01, ***P≤0.001, ****P≤0.0001.
FIG. 18 is a histogram showing that HDAC6 degrader and IMiD inhibited MM1S growth synergistically. MM1S cells were treated for 72 h and cell proliferation was examined by AlarmaBlue-brand cell viability assay (ThermoFisher Scientific, Waltham, Mass., USA). Statistical significance was analyzed by one-way ANOVA. Not significant (ns) P>0.05, *P≤0.05, **P≤0.01, ***P≤0.001, ****P≤0.000
Single treatment or co-treatment was performed as combined therapy (1 μM) for 72 hours in MM1S cells. […] However, the single treatment of 12d improved about 19% (P=0.0017) and 11% (P=0.0213) growth inhibition comparing with the combination sets of 13+15 (1:1) and pomalidomide+Next-A (1:1), respectively. To further confirm the observed enhancement, the anti-proliferation in response to 12d was studied from 0.3 nM to 3 μM. This single treatment was compared with dual treatment of 13 and 15 to rule out the potential complication derived from cell permeability issue. Degrader 12d lowered the bottom line (minimal proliferation) of curve over 20% although its IC50 was […] consequentially.
MM1S cells were harvested and plated with 1×10^5 cells in […] media per well in 96-well plate. After overnight seeding, 25 μL media containing 5× dosing concentration of the compounds or vehicle was added to each well. After 72-hour treatment at 37° C. in a humidified 5% CO2 atmosphere, 12.5 μL 10× resazurin solution (1 mg/mL) was added to each well. Then cells were incubated at 37° C. overnight. The optical density was read at 570 nm and 600 nm by plate reader.
The relative viability (RV) was measured by followed formula: […]
The single treatment of HDAC6 inhibitor, HDAC6 degrader 3j, IMiD (pomalidomide), and the combination of the two was compared in MM1S cells to evaluate cell vialility. […] Pomalidomide suppressed ˜50% proliferation at either 1 μM or 100 nM concentration. […] The results confirmed that HDAC6 degradation and IKZF degradation work synergistically to inhibit the growth of multiple myeloma cells.

How did the “Maximal Inhibition (%) of growth” value (72 h) turn out when `CCCCN(Cc1ccc(C(=O)NO)cc1)C(=O)Nc1ccc(OCCCCCn2cc(CNc3cccc4c3C(=O)N(C3CCC(=O)NC3=O)C4=O)nn2)cc1` (stereo not shown) [Compound 12d, 4-((1-butyl-3-(4-((5-(4-(((2-(2,6-dioxopiperidin-3-yl)-1,3-dioxoisoindolin-4-yl)amino)methyl)-1H-1,2,3-triazol-1-yl)pentyl)oxy)phenyl)ureido)methyl)-N-hydroxybenzamide] was run?
The value was 63.15 ± 1.82%.

What about the “degrader concentration at which HDAC6 degradation and IKZF degradation had synergistic effects” value (72 h) of the same compound?
Its value is greater than 300 nM.

And the “lowering of bottom line (minimal proliferation) of curve” value (72 h, versus 13 and 15 dual treatment)?
Its value is “over 20%”.

And the IC50 (72 h)?
The IC50 was 74.9 ± 11.3 nM.

What about the inhibition at 1 µM (1 μM, 72 h, P=0.0017, read-out: improvement of growth inhibition compared with 13+15 (1:1)) of the same compound?
Its inhibition at 1 µM is roughly 19%.

What about the inhibition at 1 µM (1 μM, 72 h, P=0.0213, read-out: improvement of growth inhibition compared with pomalidomide+Next-A (1:1)) of the same compound?
Its inhibition at 1 µM is roughly 11%.

For `CCCCN(Cc1ccc(C(=O)NO)cc1)C(=O)Nc1ccccc1` [Next-A, 4-[[butyl[(phenylamino)carbonyl]amino]methyl]-N-hydroxy-benzamide, reference compound], which “anti-proliferation effect, single treatment” value (1 μM, 72 h) is on record?
Its value is “did not show any anti-proliferation effect”.

And the “effect on cell growth” value (1 μM, 72 h)?
Its value is “minor effects”.

For `CCCCN(Cc1ccc(C(=O)OC)cc1)C(=O)Nc1ccc(OCCCCCn2cc(CNc3cccc4c3C(=O)N(C3CCC(=O)NC3=O)C4=O)nn2)cc1` (stereo not shown) [Compound 13, Methyl 4-((1-butyl-3-(4-((5-(4-(((2-(2,6-dioxopiperidin-3-yl)-1,3-dioxoisoindolin-4-yl)amino)methyl)-1H-1,2,3-triazol-1-yl)pentyl)oxy)phenyl)ureido)methyl)benzoate], which “Maximal Inhibition (%) of growth” value (72 h) is on record?
The value was 43.96 ± 1.16%.

And the IC50 (72 h)?
The IC50 was 17.7 ± 2.84 nM.

For `Nc1cccc2c1C(=O)N(C1CCC(=O)NC1=O)C2=O` (stereo not shown) [Pomalidomide, reference compound], which suppression of proliferation (either 1 μM or 100 nM, 72 h) is on record?
Its suppression of proliferation is roughly 50%.

`CCCCN(Cc1ccc(C(=O)NO)cc1)C(=O)Nc1ccc(OCCCCCn2cc(CNc3cccc4c3C(=O)N(C3CCC(=O)NC3=O)C4=O)nn2)cc1` (stereo not shown) [Compound 2] was tested. Which “anti-proliferation effect of degrader alone” value did it give?
Its value is “significant anti-proliferation effect”.

With `CCCCN(Cc1ccc(C(=O)NO)cc1)C(=O)Nc1ccc(OCCCCCn2cc(CNc3cccc4c3C(=O)N(C3CCC(=O)N(C)C3=O)C4=O)nn2)cc1` (stereo not shown) [Compound 15, 4-((1-butyl-3-(4-((5-(4-(((2-(1-methyl-2,6-dioxopiperidin-3-yl)-1,3-dioxoisoindolin-4-yl)amino)methyl)-1H-1,2,3-triazol-1-yl)pentyl)oxy)phenyl)ureido)methyl)-N-hydroxybenzamide] as the compound, how does the “effect on cell growth” value (1 μM, 72 h) read?
Its value is “totally inactive”.
